Experimental data reported in US20190231748A1, “COMPOSITION FOR VAGINA AND ANTIMICROBIAL AGENT COMBINATION FOR USE IN PREPARING COMPOSITION FOR VAGINA” (Shenzhen Eulikan Biotechnology Co., Ltd., priority 2016, published 2019).

Key:
[1] = test system: Lactococcus lactis and Lactobacillus jensenii; assay: pH of test gel after co-culture of Lactococcus lactis and Lactobacillus jensenii; format: cell-based; details: cultivated 32 hours
From the text: 2.1 Experimental strains: one Lactococcus lactis strain and one Lactobacillus jensenii strain, both were clinical isolates.
The pH value was adjusted to 5.0.
2.4 Experimental procedure: the test gel tubes containing different concentrations of antimicrobial agents, as shown in Tables 1 to 6 were inoculated with 100 microliters of Lactobacillus lactis suspension and 100 microliters of Lactobacillus jensenii suspension at the same time. The turbidities of both suspensions were 0.5 MCF. Then the tubes were cultivated at 37° C. and under 5 percent CO2 for 32 hours. Then the changes of the pH values of gels were tested. The gels were smeared, Gram stained, and microscopically examined for the morphology and quantity of bacteria.

[2] = test system: nine strains of Candida albicans; assay: Growth of Candida in enrichment broth after 24 hours, clinical strains; format: cell-based; details: agent alone, broth pH 4.5, 37° C. 24 hours
From the text: b. Enrichment broth: which contained 1 percent of yeast extract powder, 9 percent of sucrose, 0.025 percent of manganese sulfate (MnSO4.4H2O), 0.058 percent of magnesium sulfate (MgSO4.7H2O), and 0.9 percent of lactic acid, the pH value of the broth was adjusted to 4.5, and the enrichment broth was sterilized for later use;
(2) Experimental groups: the requirements of aseptic operation technique were strictly followed so to prepare the sterile test tubes;
a. sodium benzoate group: each test tube contained 5 milliliters enrichment broth, and was added in 0.025 percent (weight/volume) of sodium benzoate;
b. 2-phenylethanol group: each test tube contained 5 milliliters enrichment broth, and was added in 0.050 percent (weight/volume) of 2-phenylethanol;
c. sodium propionate group: each test tube contained 5 milliliters enrichment broth, and was added in 0.125 percent (weight/volume) of sodium propionate;
d. “a group of the combinations of sodium benzoate and sodium propionate”: each test tube contained 5 milliliters enrichment broth, and was added in 0.025 percent (weight/volume) of sodium benzoate and 0.125 percent (weight/volume) of sodium propionate;
e. “a group of the combinations of sodium benzoate and 2-phenylethanol”: each test tube contained 5 milliliters enrichment broth, and was added in 0.025 percent (weight/volume) of sodium benzoate and 0.050 percent (weight/volume) of 2-phenylethanol;
f. “a group of the combinations of sodium propionate and 2-phenylethanol”: each test tube contained 5 milliliters enrichment broth, and was added in 0.125 percent (weight/volume) of sodium propionate and 0.050 percent (weight/volume) of 2-phenylethanol;
g. “a group of the combinations of sodium benzoate, sodium propionate and 2-phenylethanol”: each test tube contained 5 milliliters enrichment broth, and was added in 0.025 percent (weight/volume) of sodium benzoate, 0.125 percent (weight/volume) of sodium propionate and 0.050 percent (weight/volume) of 2-phenylethanol;
h. positive control: the control tube of enrichment broth without adding in 2-phenylethanol, sodium benzoate, and sodium propionate; but inoculated the suspension of Candida albicans;
i. negative control: the control tube of enrichment broth without adding in 2-phenylethanol, sodium benzoate, and sodium propionate; and without inoculating Candida albicans;
The requirements for aseptic operation technique were strictly followed to prepare the suspension of organism. The colonies of each strain of Candida albicans organism were diluted with physiological saline respectively. The turbidities of the suspensions of Candida albicans organism were adjusted to 0.5 MCF (about 10^8 CFU/ml) by a turbidimeter. 1 milliliter of the 0.5 MCF organism suspension was added into 9 milliliters of enrichment broth. Each suspension was diluted for ten times to contain 10^7 CFU/ml of organisms.
the requirements for aseptic technique were strictly followed to take 100 microliters of the prepared organism suspension respectively and to add the suspension into the test tubes from a to h as well as the positive control tube. No organism suspension was added into the negative control tube i.
The above tubes were cultured in a biochemical incubator at 37° C. for 24 hours. Then the growth of Candida in each tube was observed and recorded.
Remark: “+” means the growth of organisms; “−” means no growth of organisms.

| SMILES | pH value ([1]; 0.15 % in test gel) | pH value ([1]; 0.2 % in test gel) | pH value ([1]; 0.25 % in test gel) | pH value ([1]; 0.3 % in test gel) | pH value ([1]; 0.35 % in test gel) | pH value ([1]; 0.4 % in test gel) | pH value ([1]; 0.45 % in test gel) | pH value ([1]; 0.5 % in test gel) | number of the nine Candida albicans strains that grew ([2]; 0.050 percent (weight/volume)) | pH value ([1]; 0.1 % in test gel) | pH value ([1]; 0.6 % in test gel) | pH value ([1]; 0.7 % in test gel) | number of the nine Candida albicans strains that grew ([2]; 0.125 percent (weight/volume)) |
| --- | --- | --- | --- | --- | --- | --- | --- | --- | --- | --- | --- | --- | --- |
| OCCc1ccccc1 [2-phenylethanol] | <3.8 | <3.8 | <3.8 | <3.8 | 3.8-4.1 | 4.4 | 4.6 | 4.8 | seven | – | – | – | – |
| CCC(=O)[O-].[Na+] [sodium propionate] | – | 3.8 | – | 3.8 | – | 4.4 | – | 4.4-4.6 | – | 3.8 | 4.6 | 4.8 | six |
